# Experimental data reported in US12543733B2 (priority 2020, dated 2026).
# Counter-ions that a name gives are not always drawn. Like-named read-outs stand apart in the source and are kept apart here.
# What was measured:
# [1] = system: Tribolium castaneum; assay: Fumigation assay (fumigant toxicity) against adults of stored-product insects; type: in vivo; conditions: for LC50: Tribolium castaneum
# Procedure: (§1) Culturing of Insects: The stored product insect rice weevil (S. oryzae L.) was reared on whole wheat and the rust-red flour beetle (T. castaneum Herbst.) was reared on wheat flour with 5% yeast. Rice weevil and flour beetle were maintained at 23.6±2.5° C., 70% relative humidity and a photoperiod of 12:12 (Light:Dark). Corcyra cephalonica were reared on medium consisting of finely ground rice and maize flour in the ratio 1:1 (w/w) under laboratory conditions (27±1° C., 75±5% R.H. with a 12:12 h light:dark cycle.
# [2] = system: Sitophilus oryzae; assay: as above; type: in vivo; conditions: for LC50: Sitophilus oryzae
# Procedure: as §1
# [3] = system: housefly; conditions: cited from earlier work
# [4] = system: Corcyra cephalonica; assay: Fumigation assay (fumigant toxicity) against adults of stored-product insects; type: in vivo; conditions: C. cephalonica adults, mortality after 24 hours of exposure
# Procedure: as §1
# [5] = system: C. arietinum plants; assay: Plant growth observation after seed treatment; type: in vivo
# [6] = system: stored grain insect pests; assay: Fumigation assay, range over the tested species
# Procedure: Measuring insecticidal activity of Isosecotanapartholide and Lemon grass oil (Cymbopogon flexuosus) by Fumigation Assay: The insecticidal activity of Isosecotanapartholide and lemon grass oil was assessed by fumigation assay against adults of stored-product insects (Corcyra cephalonica, Sitophilus oryzae and Tribolium castaneum). For each treatment, 50 individuals were tested for S. oryzae and T. castaneum; particularly adults were released into 0.85 L desiccators that served as the fumigation chambers. In each desiccator, a Whatman No. 1 filter circle (diameter: 9 cm) was placed to serve as an evaporating surface for injecting active extract. […] Five replicates were used for each dosage and LC50 was determined from dose response data using probit analysis. Insect mortality for isosecotanapartholide was recorded after 24 hours of exposure. Insects were considered dead when no leg or antennal movements were observed. Morality rate was calculated using Abbott formula for natural mortality in untreated (Abbott, 1925, Journal of Economic Entomology, 18, 265-267).
# For each time point, 20 adults stored grain pests were used and determined percentage mortality.
# [7] = system: V. radiata (Green gram) seeds; assay: Seed germination test; type: in vivo; conditions: for % germination (Mean ± SE): Green gram
# Procedure: (§2) In order to assess the effect of isosecotanapartholide on plant growth and seed germination, particularly 50 seeds of Chickpea and Green gram sample were treated with isosecotanapartholide at 50 and 100 ppm and germination tests were done at […] and 72 hours of exposure treatments. From each sample, twenty grains seeds were randomly selected from the treatment and soaked for about 30 minutes in distilled water, and kept on filter paper (paper towel) in a petri dish, moistened everyday with distilled water, and allowed to germinate at room temperature (25±2° C.). After 48 and 72 hours, germinated seeds were counted and percentage germination was determined as in Radwan et al. 2019 (Annals of Agricultural Sciences, 64(2), 183-187). Three replications of each were made for both treatment and control.
# (§3) From each sample, twenty grains seeds were randomly selected from the treatment and soaked for about 30 minutes in distilled water, and kept on filter paper (paper towel) in a petri dish, moistened everyday with distilled water, and allowed to germinate at room temperature (25±2° C.). After 48 and 72 hours, germinated seeds were counted and percentage germination was determined as in Radwan et al. 2019 (Annals of Agricultural Sciences, 64(2), 183-187). Three replications of each were made for both treatment and control.
# [8] = system: C. arietinum (Chick pea) seeds; assay: Seed germination test; type: in vivo; conditions: for % germination (Mean ± SE): Chick pea
# Procedure: as §2, §3
# [9] = system: V. radiata plants; assay: Plant growth observation after seed treatment; type: in vivo
# [10] = system: adults of S. oryzae; conditions: 24 hours of exposure time; cited from earlier work
# [11] = comparison with other fumigants, fumigation bioassay, read-out: LC50
# [12] = in comparison with control, observed for 2 weeks
# [13] = comparison with other fumigants, fumigation bioassay
structure (smiles),measurement,setting,value
CCOC=O [Ethyl formate],LC50,[1]; [11],1.12 ng/mL
same,LC50,[2]; [11],0.72 ng/mL
CBr [Methyl bromide],LC50,[1]; [11],8.4 ng/mL
same,LC50,[2]; [11],3.6 ng/mL
"CC12CCC(CC1)C(C)(C)O2 [1,8 Cineole]",LC50,[1]; [11],47 ng/mL
same,LC50,[2]; [11],31 ng/mL
same,LD50,[3],118 μg/fly
"C=C1C(=O)O[C@H](C2=C(C)[C@@H](O)CC2=O)[C@H]1CCC(C)=O [Isosecotanapartholide, (4S,5S)-5-[(3S)-3-hydroxy-2methyl-5-oxocyclopent-1-en-1-yl]-3-methylidene-4-(3oxobutyl)dihydrofuran-2(3H)-one]",LC90,"[1]; T. castaneum adults, fumigant toxicity, mortality after 24 hours of exposure",3.946 ng/mL
same,LC50,"[1]; T. castaneum adults, fumigant toxicity, mortality after 24 hours of exposure, read-out: LC50",2.19 ng/mL
same,LC50,[1]; [11],2.19 ng/mL
same,LC90,[4],3.296 ng/mL
same,LC50,[4]; Corcyra cephalonica,1.83 ng/mL
same,LC90,"[2]; S. oryzae adults, fumigant toxicity, mortality after 24 hours of exposure",3.274 ng/mL
same,LC50,"[2]; S. oryzae adults, fumigant toxicity, mortality after 24 hours of exposure, read-out: LC50",1.82 ng/mL
same,LC50,[2]; [11],1.82 ng/mL
same,response on plant growth,"[5]; 50 ppm, FIG. 4 (A)",comparable to control
same,adverse effect on plant growth,[5]; [12],did not cause any adverse effect
same,LC50 values,[6],1.7 to 2.2 ng/mL
same,LC90 range,[6],3.2 to 4.0 ng/mL
same,% germination (Mean ± SE),"[7]; 50 PPM, 24 hours",93.33 ± 1.33%
same,% germination (Mean ± SE),"[7]; 50 PPM, 72 hours",94.67 ± 1.33%
same,% germination (Mean ± SE),"[7]; 100 PPM, 24 hours",96.00 ± 2.30%
same,% germination (Mean ± SE),"[7]; 100 PPM, 72 hours",96.00 ± 2.30%
same,adverse effect on seed germination,"[7]; V. radiata, in comparison with control",did not cause any adverse effect
same,adverse effect on seed germination,"[8]; C. arietinum, in comparison with control",did not cause any adverse effect
same,% germination (Mean ± SE),"[8]; 50 PPM, 24 hours",96.00 ± 2.30%
same,% germination (Mean ± SE),"[8]; 50 PPM, 72 hours",97.33 ± 1.33%
same,% germination (Mean ± SE),"[8]; 100 PPM, 24 hours",94.67 ± 1.33%
same,% germination (Mean ± SE),"[8]; 100 PPM, 72 hours",96.00 ± 2.30%
same,response on plant growth,"[9]; 50 ppm, FIG. 4 (B)",comparable to control
same,adverse effect on plant growth,[9]; [12],did not cause any adverse effect
Cc1ccc(C(C)C)cc1O [Carvacol],LC50,[1]; [13],17.0 ng/mL
same,LC50,[2]; [13],14.2 ng/mL
C=CCN=C=S [allylisothiocyanate],concentration found toxic,[10],less than 6.3 μl/l
P [Phosphine],LC50,[1]; [13],9.8 ng/mL
same,LC50,[2]; [13],7.8 ng/mL
C=CC(C)(O)CCC=C(C)C (centres unmarked) [Linalool],LC50,[1]; [11],49.8 ng/mL
same,LC50,[2]; [11],39.2 ng/mL
